Assay results taken from article PMC12346692, “SUL-150 Limits Vascular Remodeling and Ventricular Failure in Pulmonary Arterial Hypertension” (International Journal of Molecular Sciences, 2025).
“And” between values parts separate entries of the source, which are not always exact repeats. Identical values can stand only once. Like-named read-outs stand apart in the source and are kept apart here.

Experiment: SUL-150 levels in plasma, lung and right ventricle (LC-MS/MS)
Type: in vivo, rat
Conditions: for concentration at 4 weeks / concentration at 28 days: rat
Experimental: The administration of vehicle and SUL-150 started 7 days post-monocrotaline injection and was performed by the i.p. implantation of osmotic minipumps (Alzet model #2004, Durect Corp., Cupertino, CA, USA) at the time of aortocaval shunt placement. The Lynch coil method was used to circumvent compatibility issues with the osmotic minipump reservoir as described previously. Vehicle (dimethyl sulfoxide (DMSO) or SUL-150 ((R)-(6-hydroxy-2,5,7,8-tetramethylchroman-2-yl)(piperazin-1-yl)methanone, 0.9 M in DMSO, Sulfateq BV, Groningen, The Netherlands) was administered at a flow rate of 0.25 µL·h^−1, accumulating to an approximate dose of 6 mg·kg^−1·day^−1 SUL-150 in a 300 g rat. Animals were weighed, watched for dyspnea, cyanosis, and oedema, and sacrificed preterm when a 15% weight loss or debilitating dyspnea occurred.
Measurement of SUL-150 levels in plasma and tissue homogenates was performed by liquid chromatography and mass spectrometry. Plasma or tissue homogenates were supplemented with acetonitrile and sonicated, followed by centrifugation at 14,000× g to liberate SUL-150 from the samples and pellet protein precipitates. Tissue samples were subjected to additional solid-phase extraction using an SPEStrata C-18 cartridge (100 mg, 55 µm, 70 Å, Phenomenex, Torrance, CA, USA), prepared with 1 mL methanol followed by 1 mL water. Analytes were washed by methanol (10%) and eluted in acetonitrile/methanol (3:7 v/v). Eluate was concentrated, and water (20%) was added. Analyte recovery was >95% for plasma samples and >70% for tissue. Liquid chromatography of the samples was performed on a 1260 Infinity HPLC device (Agilent Tech., Santa Clara, CA, USA) using a ZORBAX Eclipse AAA column (3.0 × 150 mm, particle size 3.5 µm) in a reversed-phase setup and a flow rate of 0.5 mL·min^−1 with gradient elution. Solvents consisted of methanol (6%)/acetonitrile (4%) acetate and methanol (54%)/acetonitrile (36%) in water with 0.1% ammonium for solvents A and B, respectively. MS/MS detection was performed on a QQQ 6460 mass spectrometer (Agilent Tech., Santa Clara, CA, USA). Detection was set for a quantifier ion (205.1, CE 25 V) and qualifier ion (190.1, CE 40 V). Gas temperature for MS was set to 300 °C and gas flow was set to 6 L·min^−1. Quantification of the samples was performed using an external standard for calibration. LOD and LOQ were 5 pg·mL^−1 and 17 pg·mL^−1, respectively.

[1] = individual PAH rats at sacrifice, ~6 mg·kg^−1·day^−1 i.p. minipump
[2] = plasma, ip, 6 mg·kg^−1·day^−1, mean of PAH rats at sacrifice, ~6 mg·kg^−1·day^−1 i.p. minipump, read-out: mean concentration of SUL-150 in blood plasma

Q: For `Cc1c(C)c2c(c(C)c1O)CC[C@](C)(C(=O)N1CCNCC1)O2` [SUL-150, (R)-(6-hydroxy-2,5,7,8-tetramethylchroman-2-yl)(piperazin-1-yl)methanone], which “SUL-150 concentration, Lung Tissue” value [1] is on record?
A: The value was 35.56 pg/mg and 10.21 pg/mg and 14.26 pg/mg and 25.74 pg/mg and 26.09 pg/mg and 53.94 pg/mg.

Q: What about the “SUL-150 concentration, Plasma” value [1] of the same compound?
A: Its value is 93.16 ng/mL and 3.31 ng/mL and 18.36 ng/mL and 4.42 ng/mL and 18.81 ng/mL and 43.90 ng/mL.

Q: And the “SUL-150 concentration, Right Ventricle” value [1]?
A: The value was 13.49 pg/mg and 29.91 pg/mg and 23.67 pg/mg and 16.80 pg/mg and 21.76 pg/mg and 143.68 pg/mg.

Q: And the concentration at 4 weeks (lung, ip, 6 mg·kg^−1·day^−1, mean of PAH rats at sacrifice, ~6 mg·kg^−1·day^−1 i.p. minipump, read-out: mean concentration of SUL-150 in lung)?
A: Its concentration at 4 weeks is 27.6 ± 15.8 ng/g.

Q: And the concentration at 28 days (plasma, intraperitoneal, 6 mg·kg^−1·day^−1, range over PAH rats at sacrifice, read-out: plasma level of SUL-150, range)?
A: Its concentration at 28 days is 3.3 to 93.2 ng/mL.

Q: What about the concentration at 4 weeks [2] of the same compound?
A: Its concentration at 4 weeks is 30.3 ± 34.1 ng/mL.

Q: What about the concentration at 28 days [2] of the same compound?
A: Its concentration at 28 days is 30.3 ng/mL.

Q: What about the concentration at 4 weeks (right ventricle, ip, 6 mg·kg^−1·day^−1, mean of PAH rats at sacrifice, ~6 mg·kg^−1·day^−1 i.p. minipump, read-out: mean concentration of SUL-150 in right ventricle) of the same compound?
A: Its concentration at 4 weeks is 41.5 ± 50.4 ng/g.
